Laboratory results: PubChem BioAssay AID1963838 (Molecular Pharmacology Branch, DTP, NCI, 2024)
pIC50: −log10 of the molar value.

Tested on: 855422-203-R-J1-PDC complex spheroid viability
Test: Anticancer human tumor 855422-203-R-J1-PDC patient-derived bladder carcinoma cell line growth inhibition [POLQ]
Conditions: for pIC50: curve of first compound; for viability, T/C: stronger effect = lower value
Summary of the method: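 Growth inhibition in 3D: complex spheroids (tumor PDC, HUVEC, MSC) treated with POLQ inhibitor combinations; where Cmax unknown, highest tested concentration 10 microM, except SN-38 at 1 microM.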

[1] = second compound 0.0316 µM, first compound 0.0316 µM
[2] = second compound 0.0316 µM, first compound 0.1 µM
[3] = second compound 0.0316 µM, first compound 0.316 µM
[4] = second compound 0.0316 µM, first compound 1 µM
[5] = second compound 0.0316 µM, first compound 3.16 µM
[6] = second compound 0.0316 µM, first compound 10 µM
[7] = second compound 0.1 µM, first compound 0.0316 µM
[8] = second compound 0.1 µM, first compound 0.1 µM
[9] = second compound 0.1 µM, first compound 0.316 µM
[10] = second compound 0.1 µM, first compound 1 µM
[11] = second compound 0.1 µM, first compound 3.16 µM
[12] = second compound 0.1 µM, first compound 10 µM
[13] = second compound 0.316 µM, first compound 0.0316 µM
[14] = second compound 0.316 µM, first compound 0.1 µM
[15] = second compound 0.316 µM, first compound 0.316 µM
[16] = second compound 0.316 µM, first compound 1 µM
[17] = second compound 0.316 µM, first compound 3.16 µM
[18] = second compound 0.316 µM, first compound 10 µM
[19] = second compound 1 µM, first compound 0.0316 µM
[20] = second compound 1 µM, first compound 0.1 µM
[21] = second compound 1 µM, first compound 0.316 µM
[22] = second compound 1 µM, first compound 1 µM
[23] = second compound 1 µM, first compound 3.16 µM
[24] = second compound 1 µM, first compound 10 µM
[25] = second compound 3.16 µM, first compound 0.0316 µM
[26] = second compound 3.16 µM, first compound 0.1 µM
[27] = second compound 3.16 µM, first compound 0.316 µM
[28] = second compound 3.16 µM, first compound 1 µM
[29] = second compound 3.16 µM, first compound 3.16 µM
[30] = second compound 3.16 µM, first compound 10 µM
[31] = second compound 10 µM, first compound 0.0316 µM
[32] = second compound 10 µM, first compound 0.1 µM
[33] = second compound 10 µM, first compound 0.316 µM
[34] = second compound 10 µM, first compound 1 µM
[35] = second compound 10 µM, first compound 3.16 µM
[36] = second compound 10 µM, first compound 10 µM
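Also: spheroids exposed to compounds for seven days before readout.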

Structure (SMILES): O=C(c1cc(Cc2n[nH]c(=O)c3ccccc23)ccc1F)N1CCN(C(=O)C2CC2)CC1 + Nc1ccc(C#CCN(C(=O)Cc2ncc(C(F)(F)F)cc2C(F)(F)F)c2ccc(F)cc2)nn1
- pIC50 (second compound 0.0316 µM): < 5.00
- pIC50 (second compound 0.1 µM): < 5.00
- pIC50 (second compound 0.316 µM): < 5.00
- pIC50 (second compound 1 µM): < 5.00
- pIC50 (second compound 3.16 µM): < 5.00
- pIC50 (second compound 10 µM): < 5.00
- viability, T/C [1]: 97.5%
- viability, T/C [2]: 126%
- viability, T/C [3]: 104%
- viability, T/C [4]: 98%
- viability, T/C [5]: 94%
- viability, T/C [6]: 150%
- viability, T/C [7]: 95%
- viability, T/C [8]: 132%
- viability, T/C [9]: 113%
- viability, T/C [10]: 90.8%
- viability, T/C [11]: 125%
- viability, T/C [12]: 119%
- viability, T/C [13]: 91.6%
- viability, T/C [14]: 128%
- viability, T/C [15]: 96.9%
- viability, T/C [16]: 98.8%
- viability, T/C [17]: 129%
- viability, T/C [18]: 162%
- viability, T/C [19]: 98.7%
- viability, T/C [20]: 113%
- viability, T/C [21]: 105%
- viability, T/C [22]: 109%
- viability, T/C [23]: 121%
- viability, T/C [24]: 163%
- viability, T/C [25]: 97.6%
- viability, T/C [26]: 114%
- viability, T/C [27]: 100%
- viability, T/C [28]: 107%
- viability, T/C [29]: 105%
- viability, T/C [30]: 134%
- viability, T/C [31]: 99.4%
- viability, T/C [32]: 102%
- viability, T/C [33]: 123%
- viability, T/C [34]: 99.6%
- viability, T/C [35]: 113%
- viability, T/C [36]: 109%

Structure (SMILES): CC1COCCN1c1cc(C2(S(C)(=N)=O)CC2)nc(-c2ccnc3[nH]ccc23)n1 (stereo unspecified) + COC1C(OC(N)=O)C(O)C(Oc2ccc3c(O)c(NC(=O)c4ccc(O)c(CC=C(C)C)c4)c(=O)oc3c2C)OC1(C)C
- pIC50 (second compound 0.0316 µM): 5.61
- pIC50 (second compound 0.1 µM): 5.62
- pIC50 (second compound 0.316 µM): 5.58
- pIC50 (second compound 1 µM): 5.57
- pIC50 (second compound 3.16 µM): 5.59
- pIC50 (second compound 10 µM): 5.64
- viability, T/C [1]: 110%
- viability, T/C [2]: 118%
- viability, T/C [3]: 122%
- viability, T/C [4]: 97.5%
- viability, T/C [5]: 36.7%
- viability, T/C [6]: 12%
- viability, T/C [7]: 100%
- viability, T/C [8]: 99.2%
- viability, T/C [9]: 118%
- viability, T/C [10]: 111%
- viability, T/C [11]: 31.6%
- viability, T/C [12]: 12.8%
- viability, T/C [13]: 110%
- viability, T/C [14]: 103%
- viability, T/C [15]: 117%
- viability, T/C [16]: 111%
- viability, T/C [17]: 39%
- viability, T/C [18]: 11.1%
- viability, T/C [19]: 113%
- viability, T/C [20]: 112%
- viability, T/C [21]: 126%
- viability, T/C [22]: 118%
- viability, T/C [23]: 39.5%
- viability, T/C [24]: 10.5%
- viability, T/C [25]: 125%
- viability, T/C [26]: 106%
- viability, T/C [27]: 116%
- viability, T/C [28]: 112%
- viability, T/C [29]: 37.1%
- viability, T/C [30]: 12.3%
- viability, T/C [31]: 114%
- viability, T/C [32]: 103%
- viability, T/C [33]: 111%
- viability, T/C [34]: 99.9%
- viability, T/C [35]: 30.8%
- viability, T/C [36]: 10.7%

Structure (SMILES): COc1cccc2c1C(=O)c1c(O)c3c(c(O)c1C2=O)CC(O)(C(=O)CO)CC3OC1CC(N)C(O)C(C)O1 (stereo unspecified) + Nc1ccc(C#CCN(C(=O)Cc2ncc(C(F)(F)F)cc2C(F)(F)F)c2ccc(F)cc2)nn1
- pIC50 (second compound 0.0316 µM): > 7.50
- pIC50 (second compound 0.1 µM): > 7.50
- pIC50 (second compound 0.316 µM): > 7.50
- pIC50 (second compound 1 µM): > 7.50
- pIC50 (second compound 3.16 µM): > 7.50
- pIC50 (second compound 10 µM): > 7.50
- viability, T/C [1]: 26.2%
- viability, T/C [2]: 12.8%
- viability, T/C [3]: 3.75%
- viability, T/C [4]: 0.9%
- viability, T/C [5]: 1.51%
- viability, T/C [6]: 4.81%
- viability, T/C [7]: 25.7%
- viability, T/C [8]: 12.2%
- viability, T/C [9]: 3.22%
- viability, T/C [10]: 0.93%
- viability, T/C [11]: 1.37%
- viability, T/C [12]: 3.69%
- viability, T/C [13]: 26%
- viability, T/C [14]: 12.8%
- viability, T/C [15]: 2.51%
- viability, T/C [16]: 0.82%
- viability, T/C [17]: 1.39%
- viability, T/C [18]: 5.31%
- viability, T/C [19]: 24.3%
- viability, T/C [20]: 11.5%
- viability, T/C [21]: 4.7%
- viability, T/C [22]: 0.92%
- viability, T/C [23]: 1.13%
- viability, T/C [24]: 6.67%
- viability, T/C [25]: 26.3%
- viability, T/C [26]: 12.7%
- viability, T/C [27]: 4.52%
- viability, T/C [28]: 1.14%
- viability, T/C [29]: 1.38%
- viability, T/C [30]: 4.89%
- viability, T/C [31]: 21.4%
- viability, T/C [32]: 12.1%
- viability, T/C [33]: 2.85%
- viability, T/C [34]: 2.62%
- viability, T/C [35]: 1.74%
- viability, T/C [36]: 5.86%
